The data set can be described thus: Serum phosphate in rats. In kind it is in vivo, rat. Conditions: 50 mg/kg/day oral gavage, at 24 hour or 1 week of daily dosing. How it is done:
In the first experiment, Sprague Dawley rats (Charles River Labs; N=5/group) were dosed with vehicle, 10, 50 or 200 mg/kg/qwk of FGFR1-ECD.339-Fc for four weekly doses and plasma concentrations of FGFR1-ECD.339-Fc were determined throughout the study by an ELISA based detection method.
In the second experiment, Sprague Dawley rats (Charles River Labs; N=5/group) were administered the FGFR kinase inhibitor PD173074 (Chemdea, Ridgewood, N.J.; 50 mg/kg/day) or vehicle control by oral gavage for 7 days; or were administered FGFR1-ECD.339-Fc (200 mg/kg) or appropriate vehicle weekly by intravenous administration. Blood samples were collected at the time points indicated and serum phosphate was determined at 24 and 168 hours post-initiation of dosing (Idexx laboratories, Westbrook, Mass.).

Each structure is given as a SMILES string.

With `CCN(CC)CCCCNc1ncc2cc(-c3cc(OC)cc(OC)c3)c(NC(=O)NC(C)(C)C)nc2n1` [PD173043], the plasma phosphate levels result is given as “significantly elevated”.

(Values after patent US10537611B2, “Methods of treating lung cancer” (Five Prime Therapeutics, Inc., priority 2011, dated 2020).)
